Key:
C57BL/6 mice = test: Acute DSS-colitis model of IBD; format: in vivo, mouse; conditions: 2% DSS, 50 mg/kg oral daily
Procedure: FIG. 4. Effects of Compound 8 and Dipentum on the DAI in the acute DSS-colitis model. C57BL/6 mice were treated for 6 days as follows: normal drinking water and daily oral administration of PEG (No DSS), 2% DSS in the drinking water and daily oral administration of PEG (DSS alone); 2% DSS in the drinking water and daily oral administration of 50 mg/kg Compound 8 in PEG (DSS+Compound 8), or 2% DSS in the drinking water and daily oral administration of 50 mg/kg Dipentum in PEG (DSS+Dipentum). On the indicated day, the Disease Activity Index was calculated for each group. Values represent the mean±sd for 5-6 mice per group.
FIG. 5. Effects of Compound 8 and Dipentum on colon length in the acute DSS-colitis model. Mice from the experiment described in FIG. 4 were sacrificed on Day 6, and the colon was harvested from each animal and measured. Data represent the mean±sd colon length.
FIG. 6. Effects of Compound 8 and Dipentum on neutrophil infiltration into the colon in the acute DSS-colitis model. Myeloperoxidase (MPO) activity from the colons of the animals described in FIG. 4 was measured. Values the mean±sd MPO activity in units per gram of tissue.
FIG. 7. Effects of Compound 8 and Dipentum on colonic cytokine levels in the acute DSS-colitis model. Colon samples from mice described in FIG. 4 were extracted and assayed for the levels of the indicated cytokines Values represent the mean±sd amount of each cytokine in 4-5 samples per group.
Experiments were conducted with SK inhibitors using the dextran sulfate sodium (DSS) model of IBD. In these experiments, male C57BL/6 mice were provided with standard rodent diet and water ad libitum. After their acclimation, the animals were randomly divided into groups of 5 or 6 for DSS (40,000 MW from ICN Biomedicals, Inc., Aurora, Ohio)— and drug-treatment. […] The body weight of each animal was measured each day, and the Disease Activity Index (DAI) was scored for each animal on Days 4-6. On Day 6, the animals were sacrificed by cervical dislocation and the entire colon was removed and measured to the nearest 0.1 cm.

PKBα = PKBα (Homo sapiens, UniProt P31749); test: Kinase selectivity panel; format: biochemical; conditions: read-out: percent of control activity of PKBα
PKBα, sequence (P31749 whole entry, species assumed, the tested form may be a part): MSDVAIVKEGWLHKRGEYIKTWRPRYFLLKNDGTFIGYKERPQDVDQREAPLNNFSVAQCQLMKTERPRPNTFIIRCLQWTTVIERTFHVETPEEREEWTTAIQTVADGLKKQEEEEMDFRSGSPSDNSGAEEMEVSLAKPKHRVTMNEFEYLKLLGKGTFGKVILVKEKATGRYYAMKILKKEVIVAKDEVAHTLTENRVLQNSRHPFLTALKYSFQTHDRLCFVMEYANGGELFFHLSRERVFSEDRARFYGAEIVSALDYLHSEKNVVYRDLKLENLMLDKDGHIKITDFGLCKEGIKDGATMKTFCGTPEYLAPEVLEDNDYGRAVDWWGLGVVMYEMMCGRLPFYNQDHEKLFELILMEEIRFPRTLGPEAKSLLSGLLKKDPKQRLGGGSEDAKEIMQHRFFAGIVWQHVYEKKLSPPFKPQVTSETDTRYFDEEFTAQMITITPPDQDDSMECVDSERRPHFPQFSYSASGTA
Procedure: (§1) A common problem with previous attempts to develop protein kinase inhibitors is the lack of selectivity toward the target kinase since the majority of these compounds interact with nucleotide-binding domains that are highly conserved among kinases. To determine if compound of this invention are non-selective kinase inhibitors, the effects of the SK inhibitor, Compound 73, on a diverse panel of 20 purified kinases was determined. The compound was tested at a single concentration of 50 μM.

PKBγ = PKBγ (Homo sapiens, UniProt Q9Y243); test: Kinase selectivity panel; format: biochemical; conditions: read-out: percent of control activity of PKBγ
PKBγ, sequence (Q9Y243 whole entry, species assumed): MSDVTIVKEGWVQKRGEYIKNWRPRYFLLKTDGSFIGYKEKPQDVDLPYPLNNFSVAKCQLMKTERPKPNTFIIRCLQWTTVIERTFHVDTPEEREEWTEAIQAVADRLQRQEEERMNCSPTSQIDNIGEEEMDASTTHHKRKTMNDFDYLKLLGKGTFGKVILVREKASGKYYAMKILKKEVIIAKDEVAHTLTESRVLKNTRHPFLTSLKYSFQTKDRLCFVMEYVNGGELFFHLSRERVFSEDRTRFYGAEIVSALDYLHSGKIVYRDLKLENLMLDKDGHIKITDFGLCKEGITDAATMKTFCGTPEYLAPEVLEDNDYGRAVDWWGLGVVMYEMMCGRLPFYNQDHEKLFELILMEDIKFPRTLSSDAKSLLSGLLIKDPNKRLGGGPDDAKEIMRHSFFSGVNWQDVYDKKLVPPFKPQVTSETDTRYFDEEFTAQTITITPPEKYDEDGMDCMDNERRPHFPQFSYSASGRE
Procedure: as §1

Aurora-A = Aurora-A (Homo sapiens, UniProt O14965); test: Kinase selectivity panel; format: biochemical; conditions: read-out: percent of control activity of Aurora-A
Aurora-A, sequence (O14965 whole entry): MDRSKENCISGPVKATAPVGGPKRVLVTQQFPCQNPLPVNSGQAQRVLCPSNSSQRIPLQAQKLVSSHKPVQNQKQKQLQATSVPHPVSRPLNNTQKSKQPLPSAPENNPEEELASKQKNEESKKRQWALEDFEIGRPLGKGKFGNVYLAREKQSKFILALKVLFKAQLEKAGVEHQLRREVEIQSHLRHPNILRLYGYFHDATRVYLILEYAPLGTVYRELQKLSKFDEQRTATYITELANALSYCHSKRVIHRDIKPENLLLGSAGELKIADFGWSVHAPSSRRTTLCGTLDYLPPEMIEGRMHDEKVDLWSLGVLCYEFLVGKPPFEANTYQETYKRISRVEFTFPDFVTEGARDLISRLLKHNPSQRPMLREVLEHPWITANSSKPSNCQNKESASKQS
Procedure: as §1

PDK1 = PDK1 (Homo sapiens, UniProt O15530); test: Kinase selectivity panel; format: biochemical; conditions: read-out: percent of control activity of PDK1
PDK1, sequence (O15530 whole entry): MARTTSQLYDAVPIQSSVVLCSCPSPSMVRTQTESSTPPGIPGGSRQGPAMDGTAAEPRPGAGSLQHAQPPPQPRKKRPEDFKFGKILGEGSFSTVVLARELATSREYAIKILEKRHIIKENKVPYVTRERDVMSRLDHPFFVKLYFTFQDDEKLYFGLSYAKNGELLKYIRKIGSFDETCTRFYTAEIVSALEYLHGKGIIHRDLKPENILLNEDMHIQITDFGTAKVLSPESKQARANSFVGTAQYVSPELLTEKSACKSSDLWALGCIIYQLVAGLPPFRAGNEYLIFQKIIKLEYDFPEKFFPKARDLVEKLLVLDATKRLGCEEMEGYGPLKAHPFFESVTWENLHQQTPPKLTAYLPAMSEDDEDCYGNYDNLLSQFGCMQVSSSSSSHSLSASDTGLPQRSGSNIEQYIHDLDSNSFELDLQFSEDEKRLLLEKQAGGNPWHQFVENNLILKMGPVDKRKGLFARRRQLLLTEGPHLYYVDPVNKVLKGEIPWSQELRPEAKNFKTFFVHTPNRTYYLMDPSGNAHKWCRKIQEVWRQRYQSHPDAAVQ
Procedure: as §1

Abl = Abl (Homo sapiens, UniProt P00519); test: Kinase selectivity panel; format: biochemical; conditions: read-out: percent of control activity of Abl
Abl, sequence (P00519 whole entry, species assumed): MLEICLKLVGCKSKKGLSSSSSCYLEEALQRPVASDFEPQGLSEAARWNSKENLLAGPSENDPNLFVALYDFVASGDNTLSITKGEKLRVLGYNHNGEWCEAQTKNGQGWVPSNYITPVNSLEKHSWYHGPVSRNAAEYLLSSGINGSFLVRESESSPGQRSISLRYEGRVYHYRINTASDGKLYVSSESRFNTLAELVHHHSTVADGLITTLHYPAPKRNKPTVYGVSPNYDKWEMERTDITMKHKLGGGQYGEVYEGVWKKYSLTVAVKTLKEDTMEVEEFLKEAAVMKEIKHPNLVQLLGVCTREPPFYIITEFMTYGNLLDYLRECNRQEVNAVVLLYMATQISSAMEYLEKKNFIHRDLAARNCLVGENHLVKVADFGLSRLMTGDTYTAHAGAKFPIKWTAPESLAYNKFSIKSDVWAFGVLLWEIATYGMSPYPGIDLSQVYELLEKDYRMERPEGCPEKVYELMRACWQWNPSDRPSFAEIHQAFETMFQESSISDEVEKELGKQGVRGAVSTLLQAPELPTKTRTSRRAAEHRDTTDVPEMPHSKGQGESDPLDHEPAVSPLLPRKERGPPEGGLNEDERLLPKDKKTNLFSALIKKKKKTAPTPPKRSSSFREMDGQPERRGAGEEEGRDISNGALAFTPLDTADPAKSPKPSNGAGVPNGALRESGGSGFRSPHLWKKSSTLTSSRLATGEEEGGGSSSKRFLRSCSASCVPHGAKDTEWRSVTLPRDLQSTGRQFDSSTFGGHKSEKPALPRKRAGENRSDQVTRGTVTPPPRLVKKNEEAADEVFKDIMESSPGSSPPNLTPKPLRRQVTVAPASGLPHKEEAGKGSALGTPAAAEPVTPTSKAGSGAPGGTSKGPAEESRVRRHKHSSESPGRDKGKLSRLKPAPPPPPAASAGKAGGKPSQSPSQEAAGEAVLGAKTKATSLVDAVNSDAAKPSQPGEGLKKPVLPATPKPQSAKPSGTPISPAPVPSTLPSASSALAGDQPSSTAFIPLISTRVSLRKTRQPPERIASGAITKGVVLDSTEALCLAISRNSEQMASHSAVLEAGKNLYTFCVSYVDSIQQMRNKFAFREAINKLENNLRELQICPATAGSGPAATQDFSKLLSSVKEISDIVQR
Procedure: as §1

cSrc = cSrc (Homo sapiens, UniProt P12931); test: Kinase selectivity panel; format: biochemical; conditions: read-out: percent of control activity of cSrc
cSrc, sequence (P12931 whole entry, species assumed): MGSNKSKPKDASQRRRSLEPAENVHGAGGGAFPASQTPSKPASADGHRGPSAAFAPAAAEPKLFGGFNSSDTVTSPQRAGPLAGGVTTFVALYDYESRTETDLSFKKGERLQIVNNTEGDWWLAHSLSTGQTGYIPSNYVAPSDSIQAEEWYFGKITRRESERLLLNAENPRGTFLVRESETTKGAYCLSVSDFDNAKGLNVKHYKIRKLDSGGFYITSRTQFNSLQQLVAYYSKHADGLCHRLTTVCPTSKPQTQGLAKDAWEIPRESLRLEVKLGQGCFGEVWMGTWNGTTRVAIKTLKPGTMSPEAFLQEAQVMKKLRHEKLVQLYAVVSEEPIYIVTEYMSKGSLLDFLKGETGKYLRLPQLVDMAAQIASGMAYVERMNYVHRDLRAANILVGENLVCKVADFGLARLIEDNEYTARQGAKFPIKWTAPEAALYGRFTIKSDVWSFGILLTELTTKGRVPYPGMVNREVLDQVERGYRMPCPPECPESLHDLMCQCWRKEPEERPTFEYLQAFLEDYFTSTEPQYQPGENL
Procedure: as §1

Fyn = Fyn (Homo sapiens, UniProt P06241); test: Kinase selectivity panel; format: biochemical; conditions: read-out: percent of control activity of Fyn
Fyn, sequence (P06241 whole entry, species assumed): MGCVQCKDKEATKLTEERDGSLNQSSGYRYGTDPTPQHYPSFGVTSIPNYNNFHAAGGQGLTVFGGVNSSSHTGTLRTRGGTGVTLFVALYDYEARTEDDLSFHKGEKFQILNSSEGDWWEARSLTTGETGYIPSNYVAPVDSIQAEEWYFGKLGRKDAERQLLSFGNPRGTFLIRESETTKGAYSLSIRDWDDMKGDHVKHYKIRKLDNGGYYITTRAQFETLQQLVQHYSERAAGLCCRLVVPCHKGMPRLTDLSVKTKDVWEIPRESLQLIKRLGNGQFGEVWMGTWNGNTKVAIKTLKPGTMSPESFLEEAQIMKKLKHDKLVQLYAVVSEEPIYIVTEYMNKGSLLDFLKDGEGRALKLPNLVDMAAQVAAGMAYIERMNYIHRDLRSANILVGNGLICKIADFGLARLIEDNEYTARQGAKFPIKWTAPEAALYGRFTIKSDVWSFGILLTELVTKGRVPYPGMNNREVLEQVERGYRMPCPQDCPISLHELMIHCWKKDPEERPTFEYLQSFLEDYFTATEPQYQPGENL
Procedure: as §1

Ca^2+/calmodulin PK IV = Ca^2+/calmodulin PK IV (Homo sapiens, UniProt Q16566); test: Kinase selectivity panel; format: biochemical; conditions: read-out: percent of control activity of Ca^2+/calmodulin PK IV
Procedure: as §1

cRaf = cRaf (Homo sapiens, UniProt P04049); test: Kinase selectivity panel; format: biochemical; conditions: read-out: percent of control activity of cRaf
cRaf, sequence (P04049 whole entry, species assumed): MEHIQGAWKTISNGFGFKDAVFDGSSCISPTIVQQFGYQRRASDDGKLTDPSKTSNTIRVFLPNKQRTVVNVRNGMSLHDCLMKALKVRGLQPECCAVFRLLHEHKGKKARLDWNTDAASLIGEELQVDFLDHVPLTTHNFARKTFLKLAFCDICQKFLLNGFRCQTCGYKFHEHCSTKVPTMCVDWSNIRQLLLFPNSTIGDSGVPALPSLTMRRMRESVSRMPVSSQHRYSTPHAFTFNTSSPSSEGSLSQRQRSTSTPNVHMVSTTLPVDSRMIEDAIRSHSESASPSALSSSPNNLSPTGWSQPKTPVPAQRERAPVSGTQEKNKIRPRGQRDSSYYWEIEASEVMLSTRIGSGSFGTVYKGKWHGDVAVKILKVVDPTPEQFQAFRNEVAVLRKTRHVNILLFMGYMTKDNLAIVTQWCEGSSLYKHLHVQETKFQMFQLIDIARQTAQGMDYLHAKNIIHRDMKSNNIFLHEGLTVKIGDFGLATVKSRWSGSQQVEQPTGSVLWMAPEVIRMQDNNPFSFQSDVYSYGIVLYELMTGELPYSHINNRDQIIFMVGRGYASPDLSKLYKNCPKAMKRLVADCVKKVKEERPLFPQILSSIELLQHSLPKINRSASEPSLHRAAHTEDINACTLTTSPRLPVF
Procedure: as §1

PKA = PKA (Homo sapiens, UniProt P17612); test: Kinase selectivity panel; format: biochemical; conditions: read-out: percent of control activity of PKA
Procedure: as §1

[1] = test system: diverse panel of 20 purified kinases; test: Kinase selectivity panel, overall statement; format: biochemical; conditions: 50 μM
Procedure: as §1
The panel included both serine/threonine kinases and tyrosine kinases, as well as several that are regulated by their interaction with lipids.

| Structure (SMILES) | increase in colonic MPO activity (C57BL/6 mice) | colon length (C57BL/6 mice; Day 6) | Disease Activity Index (DAI) (C57BL/6 mice; Days 4-6) | remaining activity at 50 µM (PKBα) [%] | remaining activity at 50 µM (PKBγ) [%] | remaining activity at 50 µM (Aurora-A) [%] | remaining activity at 50 µM (PDK1) [%] | remaining activity at 50 µM (Abl) [%] | remaining activity at 50 µM (cSrc) [%] | remaining activity at 50 µM (Fyn) [%] | remaining activity at 50 µM (Ca^2+/calmodulin PK IV) [%] | remaining activity at 50 µM (cRaf) [%] | remaining activity at 50 µM (PKA) [%] | inhibition of the 20 kinases of the panel [1] |
| --- | --- | --- | --- | --- | --- | --- | --- | --- | --- | --- | --- | --- | --- | --- |
| CCCC(=O)Oc1ccc(C=CC(=O)Nc2nc(-c3ccc(Cl)cc3)cs2)cc1OC [Compound 8, Butyric acid 4-{2-[4-(4-chloro-phenyl)-thiazol-2-ylcarbamoyl]-vinyl}-2-methoxy-phenyl ester] | markedly attenuated | intermediate length | reduced the intensity of the IBD manifestations | – | – | – | – | – | – | – | – | – | – | – |
| Clc1ccc(-c2csc(NCc3ccccc3)n2)cc1 [Compound 73, Benzyl-[4-(4-chloro-phenyl)-thiazol-2-yl]-amine] | – | – | – | 102 ± 1 | 100 ± 10 | 100 | 98 ± 6 | 100 ± 1 | 119 ± 6 | 102 | 113 ± 3 | 104 ± 1 | 94 ± 4 | none of the 20 diverse kinases tested were significantly inhibited |

— US20100137315A1, “Sphingosine Kinase Inhibitors and Methods of Their Use” (APOGEE BIOTECHNOLOGY CORPORATION, priority 2005, published 2010)
